Source: PMC10081574, “Evaluation of Antiviral Activity of Gemcitabine Derivatives against Influenza Virus and Severe Acute Respiratory Syndrome Coronavirus 2” (ACS Infectious Diseases, 2023)
Where two headings read alike, the source gives them in different places.

Experiments:
[1] = test system: A/Puerto Rico/8/34 (H1N1); details: for SI90 PR8: ratio of CC10 to EC90; for SI50 PR8: ratio of CC50 to EC50
in vitro = details: dog
A/Hong Kong/8/68 (H3N2) [2] = details: for SI90 HK: ratio of CC10 to EC90; for SI50 HK: ratio of CC50 to EC50
B/Lee/40 = experiment: CPE reduction antiviral assay in Lee-infected MDCK cells (MTT); format: cell-based, influenza B virus; details: for EC90 / EC50: Influenza B virus, 72 h, MDCK; for EC90: read-out: EC90 Lee; for EC50: viability of infected cells to 50%; for SI90 Lee: ratio of CC10 to EC90; for SI50 Lee: ratio of CC50 to EC50
[3] = test system: A/Puerto Rico/8/34 (H1N1); experiment: microbe, parasite or virus in culture; details: Influenza A virus, 72 h; for EC50 / EC90: H1N1 / PR8, MDCK; for EC50: read-out: EC50 PR8; for EC90: read-out: EC90 PR8; for viability at 10 µM: H1N1|PR8, MDCK, read-out: viability of PR8-infected cells in library screening
[4] = test system: influenza A and B viruses; experiment: CPE reduction antiviral assay, values summarised over influenza strains PR8, HK and Lee; format: cell-based, influenza virus; details: for EC90 / EC50: span over PR8, HK and Lee; for EC90 / recovery of viability of virus-infected cells with 90% cutoff / EC50 / subtoxic concentration at which over 90% viability of infected cells was recorded: MDCK; for EC90: read-out: EC90 against influenza viruses; for SI90 against influenza viruses / SI50 against influenza viruses: over PR8, HK and Lee; for SI90 against influenza viruses: CC10/EC90; for recovery of viability of virus-infected cells with 90% cutoff / subtoxic concentration at which over 90% viability of infected cells was recorded: day 3; for EC50: read-out: EC50 against influenza viruses; for SI50 against influenza viruses: CC50/EC50
A/Hong Kong/8/68 (H3N2) [5] = experiment: microbe, parasite or virus in culture; details: Influenza A virus, H3N2, MDCK, 72 h; for EC50: read-out: EC50 HK; for EC90: read-out: EC90 HK; for viability at 10 µM: read-out: viability of HK-infected cells in library screening
MDCK cells = details: dog, 3 days
[6] = MOI 0.001, day 3, viability of infected cells to 90%
[7] = MOI 0.001, day 3, read-out: EC50 Lee

Row | Compound | SI90 PR8 [1] | SI50 PR8 [1] | CC50 at 3 days (in vitro) | SI90 HK (A/Hong Kong/8/68 (H3N2) [2]) | SI50 HK (A/Hong Kong/8/68 (H3N2) [2]) | EC90 (B/Lee/40; [6]) | EC50 (B/Lee/40; [7]) | SI90 Lee (B/Lee/40) | SI50 Lee (B/Lee/40) | EC50 [3] | EC90 [3] | EC90 ([4]; Influenza A virus, PR8, MDCK) | SI90 against influenza viruses [4] | EC50 (A/Hong Kong/8/68 (H3N2) [5]) | EC90 (A/Hong Kong/8/68 (H3N2) [5]) | other results
1 | O=C(Nc1ccn([C@@H]2O[C@H](CO)[C@@H](O)C2(F)F)c(=O)n1)c1ccc(F)cn1 [Compound 2f] | > 11.1 | > 41.6 | > 300 µM | > 28.0 | > 49.9 | 25.7 ± 6.4 µM | 3.2 ± 2.3 µM | > 11.7 | > 94.8 | 7.2 ± 0.4 µM | 26.9 ± 16.3 µM | 10.7 to 34.3 µM | > 8.7 | 6 ± 0.1 µM | 10.7 ± 0.2 µM | 
2 | CCC(CC)O[C@@H]1C=C(C(=O)O)C[C@H](N)[C@H]1NC(C)=O [Oseltamivir carboxylate, reference compound] | > 24.0 | > 375.0 | > 300 µM | > 600.0 | > 6,000 | 60.4 ± 0.1 µM | 10 ± 0.9 µM | > 5.0 | > 30.0 | 0.8 ± 0.4 µM | 12.5 ± 8.1 µM |  |  | < 0.05 µM | 0.5 ± 0.2 µM | CC10 (MDCK cells): >300.0 µM
3 | O=C(Nc1ccn([C@@H]2O[C@H](CO)[C@@H](O)C2(F)F)c(=O)n1)c1ccc(F)nc1 [Compound 3c] | 20.0 | > 90.6 | > 300 µM | 51.2 | > 116.6 | 22.6 ± 2 µM | 1.8 ± 0.3 µM | 11.1 | > 170.6 | 3.3 ± 0.1 µM | 12.5 ± 3.6 µM | 4.9 to 22.6 µM |  | 2.6 ± 0.4 µM | 4.9 ± 0.4 µM | recovery of viability of virus-infected cells with 90% cutoff [4]: active
4 | O=C(Nc1ccn([C@@H]2O[C@H](CO)[C@@H](O)C2(F)F)c(=O)n1)c1ccccn1 [Compound 2a] | 5.5 | > 342.5 | > 300 µM | 7.1 | > 462.2 | 2.2 ± 0.8 µM | 0.6 µM | 4.4 | > 495.7 | 0.9 ± 0.2 µM | 1.8 ± 0.5 µM | 1.4 to 2.2 µM | 4.4–7.1 | 0.6 µM | 1.4 ± 0.1 µM | viability at 10 µM [3]: > 50%; EC50 ([4]; Influenza A virus): 0.6 to 0.9 µM; subtoxic concentration at which over 90% viability of infected cells was recorded [4]: 3.7 µM; SI50 against influenza viruses [4]: > 342.5; EC90 [4]: 1.4 to 16.9 µM; viability at 10 µM (A/Hong Kong/8/68 (H3N2) [5]): > 50%
5 | O=C(Nc1ccn([C@@H]2O[C@H](CO)[C@@H](O)C2(F)F)c(=O)n1)c1ccccc1 [Compound 1] | > 3.9 | > 6.9 | > 300 µM | > 3.1 | > 5.5 |  |  |  | > 13.3 | 43.4 ± 8.6 µM | 76.2 ± 30.9 µM | 76.2 to 98.1 µM | > 1.9 | 54.2 ± 5.1 µM | 98.1 ± 0.2 µM | EC50 ([1]; read-out: EC50 PR8): 43.5 ± 8.6 µM; EC50 (B/Lee/40; read-out: EC50 Lee, MDCK, MOI 0.001, day 3): 22.5 ± 0.4 µM; EC90 (B/Lee/40): 78.7 ± 2.7 µM; viability at 10 µM [3]: 10 to 20%; EC50 ([4]; Influenza A virus): 22.5 to 54.2 µM; subtoxic concentration at which over 90% viability of infected cells was recorded [4]: 100 µM; SI50 against influenza viruses [4]: > 5.5; viability at 10 µM (A/Hong Kong/8/68 (H3N2) [5]): 10 to 20%
6 | Cc1ccc(C(=O)Nc2ccn([C@@H]3O[C@H](CO)[C@@H](O)C3(F)F)c(=O)n2)cn1 [Compound 3b] | 5.7 | > 325.8 | > 300 µM | 7.3 | > 437.2 | 1.7 µM | 0.7 µM | 6.0 | > 426.6 | 0.9 µM | 1.8 ± 0.1 µM | 1.4 to 1.8 µM |  | 0.7 µM | 1.4 ± 0.2 µM | recovery of viability of virus-infected cells with 90% cutoff [4]: active
7 | Cc1nc(C(F)(F)F)ccc1C(=O)Nc1ccn([C@@H]2O[C@H](CO)[C@@H](O)C2(F)F)c(=O)n1 [Compound 3g] |  |  | > 300 µM |  |  |  |  |  |  |  |  |  |  |  |  | CC10 (MDCK cells): 8.7 ± 8.2 µM; antiviral activity against influenza viruses (in words) [4]: completely lost antiviral activity
